13 compounds from patent US8987195B2 (priority 2012, dated 2015) can be followed below.

In experiment [1] the test system is HCV genotype 1b replicon. Nature of the experiment: HCV replicon assay, genotype 1b replicon EC50. In kind it is cell-based, Hepatitis C virus. Particulars: Hepatitis C virus, genotype 1b replicon; read-out: EC50 [gt-1b]. In outline:
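Readout was replicon RNA copy number, by 32P-probe protection or TaqMan normalized to cellular cyclophilin A RNA, or luciferase activity for luciferase:Neo^r fusion lines. Cells were exposed to serially diluted compound for 24-48 hours without G418, then washed and lysed. EC50 derived from four-parameter fit relative to DMSO.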

Experiment [2] deals with HCV NS3/4A protease genotype 1b (Hepatitis C virus genotype 1b, UniProt P26663). Nature of the experiment: HCV NS3/4A protease time-resolved fluorescence (TRF) assay, Ki against genotype 1b. Particulars: IC50 [gt-1b] (nM), NS3/4A genotype 1b, enzyme 0.2 nM. In kind it is biochemical. The procedure, abridged:
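Time-resolved fluorescence readout of NS3/4A cleavage of 25 nM europium-labelled peptide over 2.5 h at room temperature, enzyme levels set for signal/background 10–30 (0.2, 0.4, 0.025 nM for 1b, A156T, 3a). Ki by IC50=Ki(1+[S]/KM).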

Each structure is given as a SMILES string.

Consider `CC(C)COC(=O)N[C@H]1CCCCC/C=C\[C@@H]2C[C@@]2(C(=O)NS(=O)(=O)C2(C)CC2)NC(=O)[C@@H]2C[C@]3(CCc4c(c(C5CC5)nc5ccccc45)O3)CN2C1=O` [Example 103, 2-methylpropyl [(2R,6S,12Z,13aS,14aR,16aS)-5′-cyclopropyl-14a-{[(1-methylcyclopropyl)sulfonyl]carbamoyl}-5,16-dioxo-1,1′,2′,5,6,7,8,9,10,11,13a,14,14a,15,16,16a-hexadecahydrospiro[cyclopropa[e]pyrrolo[1,2-a][1,4]diazacyclopentadecine-2,3′-pyrano[2,3-c]quinolin]-6-yl]carbamate], for which, in experiment [1], the EC50 was 1.51 nM. In addition, 0.012 nM corresponded to half-maximal inhibition in experiment [2] (IC50).

As to `CC1(S(=O)(=O)NC(=O)[C@@]23C[C@H]2/C=C\CCCCC[C@H](NC(=O)OC2CCCC2)C(=O)N2C[C@@]4(CCc5c(c(C6CC6)nc6ccccc56)O4)C[C@H]2C(=O)N3)CC1` [Example 104, cyclopentyl [(2R,6S,12Z,13aS,14aR,16aS)-5′-cyclopropyl-14a-{[(1-methylcyclopropyl)sulfonyl]carbamoyl}-5,16-dioxo-1,1′,2′,5,6,7,8,9,10,11,13a,14,14a,15,16,16a-hexadecahydrospiro[cyclopropa[e]pyrrolo[1,2-a][1,4]diazacyclopentadecine-2,3′-pyrano[2,3-c]quinolin]-6-yl]carbamate], the EC50 in experiment [1] worked out at 1.39 nM. In experiment [2], this compound displayed an IC50 of 0.013 nM.

In the case of `Cc1nc2ccccc2c2c1O[C@]1(CC2)C[C@H]2C(=O)N[C@]3(C(=O)NS(=O)(=O)C4(C)CC4)C[C@H]3/C=C\CCCCC[C@H](NC(=O)OC(C)C)C(=O)N2C1` [Example 105, propan-2-yl [(2R,6S,12Z,13aS,14aR,16aS)-5′-methyl-14a-{[(1-methylcyclopropyl)sulfonyl]carbamoyl}-5,16-dioxo-1,1′,2′,5,6,7,8,9,10,11,13a,14,14a,15,16,16a-hexadecahydrospiro[cyclopropa[e]pyrrolo[1,2-a][1,4]diazacyclopentadecine-2,3′-pyrano[2,3-c]quinolin]-6-yl]carbamate], the EC50 in experiment [1] amounted to 1.42 nM. In addition, in experiment [2], the IC50 is 0.013 nM.

On to `Cc1nc2ccccc2c2c1O[C@@]1(C[C@H]3C(=O)N[C@]4(C(=O)NS(=O)(=O)C5(C)CC5)C[C@H]4/C=C\CCCCC[C@H](NC(=O)OCC(C)C)C(=O)N3C1)CC2(F)F` [Example 106, 2-methylpropyl [(2S,6S,12Z,13aS,14aR,16aS)-1′,1′-difluoro-5′-methyl-14a-{[(1-methylcyclopropyl)sulfonyl]carbamoyl}-5,16-dioxo-1,1′,2′,5,6,7,8,9,10,11,13a,14,14a,15,16,16a-hexadecahydrospiro[cyclopropa[e]pyrrolo[1,2-a][1,4]diazacyclopentadecine-2,3′-pyrano[2,3-c]quinolin]-6-yl]carbamate], for which the EC50 in experiment [1] was determined as 3.21 nM. Besides, the IC50 in experiment [2] is 0.048 nM.

For the compound `Cc1nc2c(F)cccc2c2c1O[C@]1(CC2)C[C@H]2C(=O)N[C@]3(C(=O)NS(=O)(=O)C4CC4)C[C@H]3/C=C\CCCCC[C@H](NC(=O)OC(C)(C)C)C(=O)N2C1` [Example 107, tert-butyl {(2R,6S,12Z,13aS,14aR,16aS)-14a-[(cyclopropylsulfonyl)carbamoyl]-7′-fluoro-5′-methyl-5,16-dioxo-1,1′,2′,5,6,7,8,9,10,11,13a,14,14a,15,16,16a-hexadecahydrospiro[cyclopropa[e]pyrrolo[1,2-a][1,4]diazacyclopentadecine-2,3′-pyrano[2,3-c]quinolin]-6-yl}carbamate], the EC50 in experiment [1] stood at 3.48 nM. The compound further displayed a 50% inhibitory concentration (IC50) in experiment [2] of 0.014 nM.

Take `Cc1ccc2nc(C)c3c(c2c1)CC[C@]1(C[C@H]2C(=O)N[C@]4(C(=O)NS(=O)(=O)C5(C)CC5)C[C@H]4/C=C\CCCCC[C@H](NC(=O)OCC(C)C)C(=O)N2C1)O3` [Example 108, 2-methylpropyl [(2R,6S,12Z,13aS,14aR,16aS)-5′,9′-dimethyl-14a-{[(1-methylcyclopropyl)sulfonyl]carbamoyl}-5,16-dioxo-1,1′,2′,5,6,7,8,9,10,11,13a,14,14a,15,16,16a-hexadecahydrospiro[cyclopropa[e]pyrrolo[1,2-a][1,4]diazacyclopentadecine-2,3′-pyrano[2,3-c]quinolin]-6-yl]carbamate]: in experiment [1], the EC50 came out at 1.23 nM. This compound also gave an IC50 in experiment [2] of 0.007 nM.

For the compound `Cc1ccc2nc(C)c3c(c2c1)CC[C@]1(C[C@H]2C(=O)N[C@]4(C(=O)NS(=O)(=O)C5(C)CC5)C[C@H]4/C=C\CCCCC[C@H](NC(=O)OC(C)C)C(=O)N2C1)O3` [Example 109, propan-2-yl [(2R,6S,12Z,13aS,14aR,16aS)-5′,9′-dimethyl-14a-{[(1-methylcyclopropyl)sulfonyl]carbamoyl}-5,16-dioxo-1,1′,2′,5,6,7,8,9,10,11,13a,14,14a,15,16,16a-hexadecahydrospiro[cyclopropa[e]pyrrolo[1,2-a][1,4]diazacyclopentadecine-2,3′-pyrano[2,3-c]quinolin]-6-yl]carbamate], the EC50 in experiment [1] stood at 0.944 nM. In experiment [2], this compound displayed an IC50 of 0.011 nM.

Take `CC(C)COC(=O)N[C@H]1CCCCC/C=C\[C@@H]2C[C@@]2(C(=O)NS(=O)(=O)C2(C)CC2)NC(=O)[C@@H]2C[C@]3(CCc4c(cnc5ccccc45)O3)CN2C1=O` [Example 110, 2-methylpropyl [(2R,6S,12Z,13aS,14aR,16aS)-14a-{[(1-methylcyclopropyl)sulfonyl]carbamoyl}-5,16-dioxo-1,1′,2′,5,6,7,8,9,10,11,13a,14,14a,15,16,16a-hexadecahydrospiro[cyclopropa[e]pyrrolo[1,2-a][1,4]diazacyclopentadecine-2,3′-pyrano[2,3-c]quinolin]-6-yl]carbamate]: in experiment [1], the EC50 was 47.7 nM. Further, 0.806 nM corresponded to half-maximal inhibition in experiment [2] (IC50).

For the compound `CC1(OC(=O)N[C@H]2CCCCC/C=C\[C@@H]3C[C@@]3(C(=O)NS(=O)(=O)C3(C)CC3)NC(=O)[C@@H]3C[C@]4(CCc5c(c(C6CC6)nc6ccccc56)O4)CN3C2=O)CCC1` [Example 111, 1-methylcyclobutyl [(2R,6S,12Z,13aS,14aR,16aS)-5′-cyclopropyl-14a-{[(1-methylcyclopropyl)sulfonyl]carbamoyl}-5,16-dioxo-1,1′,2′,5,6,7,8,9,10,11,13a,14,14a,15,16,16a-hexadecahydrospiro[cyclopropa[e]pyrrolo[1,2-a][1,4]diazacyclopentadecine-2,3′-pyrano[2,3-c]quinolin]-6-yl]carbamate], the EC50 in experiment [1] turned out to be 0.685 nM. The compound also gave an IC50 in experiment [2] of 0.011 nM.

Take `Cc1nc2ccccc2c2c1O[C@@]1(C[C@H]3C(=O)N[C@]4(C(=O)NS(=O)(=O)C5(C)CC5)C[C@H]4/C=C\CCCCC[C@H](NC(=O)OC4CC(F)(F)C4(F)F)C(=O)N3C1)CC2(F)F` (stereo partly drawn) [Example 112, 2,2,3,3-tetrafluorocyclobutyl [(2S,6S,12Z,13aS,14aR,16aS)-1′,1′-difluoro-5′-methyl-14a-{[(1-methylcyclopropyl)sulfonyl]carbamoyl}-5,16-dioxo-1,1′,2′,5,6,7,8,9,10,11,13a,14,14a,15,16,16a-hexadecahydrospiro[cyclopropa[e]pyrrolo[1,2-a][1,4]diazacyclopentadecine-2,3′-pyrano[2,3-c]quinolin]-6-yl]carbamate]: the EC50 in experiment [1] was found to be 32 nM. In addition, the IC50 in experiment [2] was 0.226 nM.

For the compound `Cc1nc2c(C(F)(F)F)cccc2c2c1O[C@]1(CC2)C[C@H]2C(=O)N[C@]3(C(=O)NS(=O)(=O)C4(C)CC4)C[C@H]3/C=C\CCCCC[C@H](NC(=O)OCC(C)C)C(=O)N2C1` [Example 113, 2-methylpropyl [(2R,6S,12Z,13aS,14aR,16aS)-5′-methyl-14a-{[(1-methylcyclopropyl)sulfonyl]carbamoyl}-5,16-dioxo-7′-(trifluoromethyl)-1,1′,2′,5,6,7,8,9,10,11,13a,14,14a,15,16,16a-hexadecahydrospiro[cyclopropa[e]pyrrolo[1,2-a][1,4]diazacyclopentadecine-2,3′-pyrano[2,3-c]quinolin]-6-yl]carbamate], the EC50 in experiment [1] came out at 3.95 nM. In experiment [2], this compound returned an IC50 of 0.298 nM.

For the compound `Cc1nc2c(C(F)(F)F)cccc2c2c1O[C@]1(CC2)C[C@H]2C(=O)N[C@]3(C(=O)NS(=O)(=O)C4(C)CC4)C[C@H]3/C=C\CCCCC[C@H](NC(=O)OC(C)C)C(=O)N2C1` [Example 114, propan-2-yl [(2R,6S,12Z,13aS,14aR,16aS)-5′-methyl-14a-{[(1-methylcyclopropyl)sulfonyl]carbamoyl}-5,16-dioxo-7′-(trifluoromethyl)-1,1′,2′,5,6,7,8,9,10,11,13a,14,14a,15,16,16a-hexadecahydrospiro[cyclopropa[e]pyrrolo[1,2-a][1,4]diazacyclopentadecine-2,3′-pyrano[2,3-c]quinolin]-6-yl]carbamate], the EC50 in experiment [1] came out at 3.53 nM. Besides, the half-maximal inhibitory concentration (IC50) in experiment [2] was 0.308 nM.

With `CCOC(=O)N[C@H]1CCCCC/C=C\[C@@H]2C[C@@]2(C(=O)NS(=O)(=O)C2(C)CC2)NC(=O)[C@@H]2C[C@]3(CCc4c(c(C)nc5ccccc45)O3)CN2C1=O` [Example 115, ethyl [(2R,6S,12Z,13aS,14aR,16aS)-5′-methyl-14a-{[(1-methylcyclopropyl)sulfonyl]carbamoyl}-5,16-dioxo-1,1′,2′,5,6,7,8,9,10,11,13a,14,14a,15,16,16a-hexadecahydrospiro[cyclopropa[e]pyrrolo[1,2-a][1,4]diazacyclopentadecine-2,3′-pyrano[2,3-c]quinolin]-6-yl]carbamate], in experiment [1], the EC50 was 6.86 nM. In experiment [2], this compound yielded an IC50 of 0.017 nM.
